Measured values published in patent publication US6150414A, “Compositions and methods for treating viral infections” (priority 1992, dated 2000).
Several values for one entry are separate records, joined by “and”; a condition that tells them apart may be missing. Equal entries are not always repeated.

Columns and labels:
retroviruses (virions) = assay: Direct inactivation of retroviruses (virions) in vitro (Example 10); format: biochemical, Radiation Leukemia Virus; conditions: Table IX
How it was run: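 RadLV-containing supernatants from chronically infected B10.T(6R) cells incubated 30 min on ice with hypericin or protohypericin. Virions then pelleted at 100,000×g for 1 h at 4° C and assayed for reverse transcriptase activity. EC50 is the micromolar concentration inhibiting 50% of virus.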

[1] = system: virus budding in virus-producing cells; assay: In vitro inhibition of virus budding: production of defective budded virions (Example 10); format: cell-based; conditions: in vitro; Table IX; read-out: EC50 for production of defective budded virions
Source text: The results presented above in Table IX are presented as EC50 concentrations. These are the effective concentrations which inhibit 50% of the viruses in micromolar concentrations.

[2] = target: T1, Radiation Leukemia Virus reverse transcriptase (Radiation murine leukemia virus, UniProt P11227); assay: Reverse transcriptase assay of Radiation Leukemia Virus from B10.T(6R) cell supernatants (Example 3); format: biochemical; conditions: Table V; for CPM: replicate
T1 construct: the reverse transcriptase of Radiation Leukemia Virus; endogenous in cells
Procedure: Supernatants (10 ml/tube) from B10.T(6R) cells (Meruelo et al. J. Exp. Med. 147: 470-487, 1978) chronically infected with Radiation Leukemia Virus (RadLV) were obtained by centrifugation of cells in culture at 4° C., 3500 rpm for 15 minutes. The top 2/3 of the supernatant were removed and aliquots were incubated for 30 minutes on ice with the indicated amounts of hypericin or protohypericin. […] Thereafter, supernatants were centrifuged at 100,000×g using a TI70 rotor (Beckman Instruments) for 1 hour at 4° C. The pellet was […] and analyzed for reverse transcriptase activity as follows.
The reverse transcriptase assay was performed in a volume of 100 microliters containing the following components:
The reverse transcriptase assay provides a measure of the antiviral activity of the compounds tested by reference to the observed decrease in activity of this enzyme.
In Table V, "CPM" is "counts per minute", "Average" is the numerical average of CPM values within each group of animals.

Cc1cc(O)c2c(=O)c3c(O)cc(O)c4c5c(O)cc(O)c6c(=O)c7c(O)cc(C)c8c1c2c(c34)c(c78)c65 [hypericin, Hypericin]
EC50 (retroviruses (virions)): 0.06 µM
EC50 [1]: 0.2 µM
Average CPM ([2]; 0.05 micrograms): 3,067 CPM
Average percent inhibition ([2]; 0.05 micrograms): 98.5%
CPM ([2]; 0.05 micrograms): 2,882 CPM and 3,252 CPM
Average CPM ([2]; 0.1 micrograms): 2,333 CPM
Average percent inhibition ([2]; 0.1 micrograms): 98.9%
CPM ([2]; 0.1 micrograms): 1,668 CPM and 2,998 CPM
Average CPM ([2]; 0.5 micrograms): 3,428.5 CPM
Average percent inhibition ([2]; 0.5 micrograms): 98.4%
CPM ([2]; 0.5 micrograms): 3,190 CPM and 3,667 CPM
Average CPM ([2]; 1 microgram): 4,097 CPM
Average percent inhibition ([2]; 1 microgram): 98.0%
CPM ([2]; 1 microgram): 4,504 CPM and 3,690 CPM
Average CPM ([2]; 5 micrograms): 11,778 CPM
Average percent inhibition ([2]; 5 micrograms): 94.4%
CPM ([2]; 5 micrograms): 12,224 CPM and 11,332 CPM
Average CPM ([2]; 10 micrograms): 9,007 CPM
Average percent inhibition ([2]; 10 micrograms): 95.7%
CPM ([2]; 10 micrograms): 8,912 CPM and 9,102 CPM
Average CPM ([2]; 50 micrograms): 4,575 CPM
Average percent inhibition ([2]; 50 micrograms): 97.8%
CPM ([2]; 50 micrograms): 5,434 CPM and 3,716 CPM
Average CPM ([2]; 100 micrograms): 1,830 CPM
Average percent inhibition ([2]; 100 micrograms): 99.0%
CPM ([2]; 100 micrograms): 1,502 CPM and 2,158 CPM
